Results taken from patent US20260256925A1, “INDAZOLE DERIVATIVES AS ESTROGEN RECEPTOR DEGRADERS” (REGENTS OF THE UNIVERSITY OF MICHIGAN, priority 2022, published 2026).

Experiments:
ER = molecular target: T1, ER (Homo sapiens, UniProt P03372); test: In-cell western blot analysis, relative ER percentage (compounds B1-B126); type: cell-based; settings: ER degradation, 16 hours, read-out: ICW DC50
T1 construct: endogenous in cells; probably T47D or MCF-7
T1 sequence (P03372 1-595): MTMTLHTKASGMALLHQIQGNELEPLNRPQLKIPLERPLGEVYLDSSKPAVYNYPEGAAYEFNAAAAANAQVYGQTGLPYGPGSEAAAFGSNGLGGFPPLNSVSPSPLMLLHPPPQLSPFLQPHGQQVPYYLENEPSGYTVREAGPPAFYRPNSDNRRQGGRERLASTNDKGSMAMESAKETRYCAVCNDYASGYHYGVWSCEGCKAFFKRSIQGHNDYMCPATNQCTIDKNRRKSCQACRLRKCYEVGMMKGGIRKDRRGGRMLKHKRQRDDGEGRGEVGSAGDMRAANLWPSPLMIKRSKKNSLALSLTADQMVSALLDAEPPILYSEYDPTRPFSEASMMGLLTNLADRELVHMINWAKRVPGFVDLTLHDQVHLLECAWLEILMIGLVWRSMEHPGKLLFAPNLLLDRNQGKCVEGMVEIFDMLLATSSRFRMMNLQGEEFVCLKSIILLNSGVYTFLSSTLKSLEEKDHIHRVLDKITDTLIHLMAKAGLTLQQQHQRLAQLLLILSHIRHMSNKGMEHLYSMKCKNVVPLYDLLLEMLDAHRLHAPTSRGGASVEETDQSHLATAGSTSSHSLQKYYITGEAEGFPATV
In short: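 Cells seeded at 40,000 or 10,000 per well overnight were treated with compound (final 0.5% DMSO) for 16 hours, then fixed with formaldehyde. ER was detected with primary antibodies and anti-rabbit-680/anti-mouse-800 secondaries on a CLX reader. Signal is expressed relative to untreated and DMSO wells set as 100%.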

[1] = Cell growth assay, WST-8 (compounds B1-B126); type: cell-based; settings: 96 h; T47D cell line, WST-8, 4 days; read-out: Cell growth inhibition in T47D cell line IC50
In short: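 Cells seeded at 1500/well overnight, treated one day later with compound doses for 4 days, then 10% WST-8 added for 2.5 h at 37° C in CO2. Absorbance at 450 nm, expressed relative to vehicle control over three independent repeats.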

Row | SMILES | DC50 (ER) | IC50 [1]
1 | C[C@@H]1Cc2c(ccc3[nH]ncc23)[C@@H](c2ccc(N3CCC4(CC3)CC(CN3CCN5c6ccc7c(c6OC[C@H]5C3)CN(C3CCC(=O)NC3=O)C7=O)CO4)cn2)N1CC(F)(F)F (stereo partly drawn) [Compound B91, 3-((5aR)-7-((8-(6-((6S,8R)-8-methyl-7-(2,2,2-trifluoroethyl)-6,7,8,9-tetrahydro-3H-pyrazolo[4,3-f]isoquinolin-6-yl)pyridin-3-yl)-1-oxa-8-azaspiro[4.5]decan-3-yl)methyl)-1-oxo-1,3,5,5a,6,7,8,9-octahydro-2H-pyrazino[1′,2′:4,5][1,4]oxazino[2,3-e]isoindol-2-yl)piperidine-2,6-dione] | < 10 nM | 1 to 10 nM
2 | COc1cc(N2CCC3(CCN(CC(=O)N4Cc5cc6c(cc5C4)C(=O)N(C4CCC(=O)NC4=O)C6=O)CC3)CC2)ccc1[C@@H]1c2ccc3[nH]ncc3c2C[C@@H](C)N1CC(F)F (stereo partly drawn) [Compound B51, 6-(2-(9-(4-((6S,8R)-7-(2,2-difluoroethyl)-8-methyl-6,7,8,9-tetrahydro-3H-pyrazolo[4,3-f]isoquinolin-6-yl)-3-methoxyphenyl)-3,9-diazaspiro[5.5]undecan-3-yl)acetyl)-2-(2,6-dioxopiperidin-3-yl)-6,7-dihydropyrrolo[3,4-f]isoindole-1,3(2H,5H)-dione] | 10 to 100 nM | > 10 nM
3 | C[C@@H]1Cc2c(ccc3[nH]ncc23)[C@@H](c2ccc(N3CCC(CN4CCN(c5ccc6c(c5)CN(C5CCC(=O)NC5=O)C6=O)CC4)CC3)cn2)N1CC(F)(F)F (stereo partly drawn) [Compound B63, 3-(5-(4-((1-(6-((6S,8R)-8-methyl-7-(2,2,2-trifluoroethyl)-6,7,8,9-tetrahydro-3H-pyrazolo[4,3-f]isoquinolin-6-yl)pyridin-3-yl)piperidin-4-yl)methyl)piperazin-1-yl)-1-oxoisoindolin-2-yl)piperidine-2,6-dione] | < 10 nM | < 1 nM

The next lines start with results.

Row | DC50 (ER) | SMILES | IC50 [1]
4 | < 10 nM | C[C@@H]1Cc2c(ccc3[nH]ncc23)[C@@H](c2c(F)cc(NC3CN(C(=O)CN4CCN5c6cc7c(cc6OC[C@@H]5C4)C(=O)N(C4CCC(=O)NC4=O)C7)C3)cc2F)N1CC(F)F (stereo partly drawn) [Compound B26, 3-((S)-3-(2-(3-((4-((6S,8R)-7-(2,2-difluoroethyl)-8-methyl-6,7,8,9-tetrahydro-3H-pyrazolo[4,3-f]isoquinolin-6-yl)-3,5-difluorophenyl)amino)azetidin-1-yl)-2-oxoethyl)-8-oxo-1,2,3,4,4a,5,8,10-octahydro-9H-pyrazino[1′,2′:4,5][1,4]oxazino[2,3-f]isoindol-9-yl)piperidine-2,6-dione] | < 1 nM
5 | < 10 nM | C[C@@H]1Cc2c(ccc3[nH]ncc23)[C@@H](c2ccc(N3CCC4(CC3)CC(CN3CCN5c6cc7c(cc6OC[C@@H]5C3)C(=O)N(C3CCC(=O)NC3=O)C7)CO4)cn2)N1CC(F)(F)F (stereo partly drawn) [Compound B94, 3-((4aS)-3-((8-(6-((6S,8R)-8-methyl-7-(2,2,2-trifluoroethyl)-6,7,8,9-tetrahydro-3H-pyrazolo[4,3-f]isoquinolin-6-yl)pyridin-3-yl)-1-oxa-8-azaspiro[4.5]decan-3-yl)methyl)-8-oxo-1,2,3,4,4a,5,8,10-octahydro-9H-pyrazino[1′,2′:4,5][1,4]oxazino[2,3-f]isoindol-9-yl)piperidine-2,6-dione] | < 1 nM
6 | < 10 nM | C[C@@H]1Cc2c(ccc3[nH]ncc23)[C@@H](c2ccc(N3CC4(CCC(CN5CCN6c7ccc8c(c7OC[C@@H]6C5)CN(C5CCC(=O)NC5=O)C8=O)CC4)C3)cn2)N1CC(F)F (stereo partly drawn) [Compound B87, 3-((S)-7-((2-(6-((6S,8R)-7-(2,2-difluoroethyl)-8-methyl-6,7,8,9-tetrahydro-3H-pyrazolo[4,3-f]isoquinolin-6-yl)pyridin-3-yl)-2-azaspiro[3.5]nonan-7-yl)methyl)-1-oxo-1,3,5,5a,6,7,8,9-octahydro-2H-pyrazino[1′,2′:4,5][1,4]oxazino[2,3-e]isoindol-2-yl)piperidine-2,6-dione] | 1 to 10 nM
